Patent US12410124B2 (priority 2019, dated 2025)

How the values were obtained:
Type in all cases: in vivo
midbrain pp38 = experiment: Midbrain pp38 protein expression in MPTP Parkinson's disease model mouse (western-blotting); conditions: midbrain total protein, GAPDH internal reference, gavage 21 days after MPTP modeling
Description: (§1) Neurotoxins can be used to establish PD animal models. Currently, 1-methyl-4-phenyl-1,2,3,6-tetrahydropyridine (MPTP) is the sole synthetic toxin which is recognized to induce PD symptoms in human and non-human primates and in mice. Using MPTP subacute modeling method, C57BL/6J male mice were intraperitoneally injected with MPTP 30 mg/kg, once a day for 5 consecutive days. The experiment animals were divided into blank control group, MPTP model group, and compound treatment group. For the […] compound treatment group, the compound was administrated by gavage for 21 consecutive days after the completion of modeling; for the MPTP model group, the normal saline was administrated by gavage for 21 consecutive days after the completion of modeling; and for the blank control group, the normal saline was first intraperitoneally injected for 5 days, and then administrated by gavage for 21 days.
The p38 mitogen-activated protein kinase (p38 MAPK) is expressed in both neurons and glial cells, and is the intersection point of neuron-glial cell network information regulations. The activation of p38 signaling pathway is an important initiator of neuronal degeneration, which continuously induces the apoptosis of dopaminergic neurons in multiple ways. It has become a research hotspot for the treatment of PD. Studies have shown that the protective mechanism of CAPE against the death of primary cultured cerebellar granule neurons induced by glutamate lies in inhibiting the activation of p38 phosphorylation and in turn inhibiting the activation of the caspase 3 apoptotic pathway to prevent neuronal apoptosis. Therefore, the MPTP-induced PD mouse model can be used to investigate the inhibitory effect of the target compounds on the activation of p38 phosphorylation on the overall animal level.
Half of experiment mice in each group were taken to extract the total midbrain protein, and the change in the midbrain phosphorylated p38 protein expression was determined by western-blotting using GAPDH as the internal reference. The experiment included blank control group, MPTP model group, positive control group (caffeic acid phenethyl ester, CAPE), prototype control group (styryl sulfone compounds 3B, 3C, 3D, and 3G, whose structures are shown as above), and target compound group.

substantia nigra TH = experiment: Substantia nigra TH expression in MPTP Parkinson's disease model mouse (immunofluorescence); conditions: percentage of mean intensity of blank control group, gavage 21 days after MPTP modeling
Description: as §1
The main cause of PD lies in the pathological changes in the substantia nigra-striatum projection system of the brain and the progressive degeneration and loss of dopaminergic neurons. Tyrosine hydroxylase (TH) is the first enzyme in the biosynthesis of catecholamine neurotransmitters, as well as the first rate-limiting enzyme in the dopamine synthesis. It plays an important role in the synthesis and metabolism of the neurotransmitter DA. The TH in PD animal models and patients has a wide range of abnormal changes, from the gene expression to the enzyme protein content and enzyme activity. The detection of the TH expression in the midbrain and substantia nigra of PD model mice can be used to evaluate the neuroprotective activity of the compound.
(§2) Half of experiment mice in each group were taken to separate the midbrain after perfusion and fixation. The tissue was trimmed, and the substantia nigra-striatum area was taken to prepare paraffin sections. The TH immunofluorescence staining was performed in the brain sections of mice in each group. […] The experiment included blank control group, MPTP model group, positive control group (caffeic acid phenethyl ester, CAPE), prototype control group (styryl sulfone compounds 3B, 3C, 3D, and 3G, whose structures are shown as above), and target compound group.

substantia nigra p-α-s = experiment: Substantia nigra p-α-s protein expression in MPTP Parkinson's disease model mouse (immunofluorescence); conditions: percentage of mean intensity of blank control group, gavage 21 days after MPTP modeling
Description: as §1
Alpha-synuclein is an “unfolded protein” in its natural state. It exists in a monomeric form, and participates in the physiological functions such as the release of neurotransmitters, the establishment of synaptic junctions, and the regulation of synaptic plasticity. Under pathological conditions, more than 90% of alpha-synuclein is phosphorylated at serine of position 129 and converted into phosphorylated alpha-synuclein (p-α-s), thereby forming Lewy bodies. The formation of Lewy bodies is one of the main pathological manifestations and pathological mechanisms for Parkinson's disease, and plays an important role in the formation and development of PD. The detection of the p-α-s expression in the midbrain and substantia nigra of PD model mice can evaluate the neuroprotective activity of the compound.
as §2, with “p-α-s” for “TH”

midbrain CD11b = experiment: Midbrain CD11b protein expression in MPTP Parkinson's disease model mouse (western-blotting); conditions: midbrain, MPTP Parkinson's disease model mouse, western-blotting
Description: as §1
Neuron-glial cell network homeostasis disorder is an important factor for the selective and progressive death of substantia nigra dopaminergic neurons in PD. In the neurotoxic effect of MPTP, the excessive activations of microglial cells and astrocytes produce a variety of inflammatory cytokines and reactive oxygen species (ROS). These inflammatory factors and ROS amplify their respective toxicities and mediate malignant feedback loop, causing a cascade inflammation response and aggravating the pathological process of PD. CD11b and GFAP are the marker proteins for activations of microglial cells and astrocytes, respectively. Therefore, the effect of the target compounds on the activations of the microglial cells and astrocytes in the substantia nigra, hippocampus, and midbrain areas of MPTP-induced PD mice can be investigated, to explore the mechanism of the anti-PD effect of the target compounds by inhibiting the neuroinflammation.
[…] The experiment included blank control group, MPTP model group, positive control group (caffeic acid phenethyl ester, CAPE), prototype control group (styryl sulfone compounds 3B, 3C, 3D), and 3G, whose structures are shown as above), and target compound group.

HO-1 = experiment: Midbrain HO-1 expression in MPTP Parkinson's disease model mouse (western blot); conditions: midbrain, MPTP Parkinson's disease model mouse, western blot
Description: as §1
Oxidative stress is an important pathogenic mechanism of PD. Dopaminergic neurons are more sensitive to oxidative stress and are more susceptible to oxidative stress damage. Heme oxygenase (HO-1), a phase II enzyme, is also a well-known antioxidase. It plays an important protective role by catalyzing the conversion of free radicals into non-toxic products and increasing their water solubility to facilitate the elimination of free radicals, and maintain the redox balance in the body. It plays an important role in the process of protecting cells against oxidative stress damage. The activation of p38 protein phosphorylation has a negative regulatory effect on phase II enzymes. […] Using HO-1 as an indicator, the inhibitory effect of the target compounds on MPTP-induced oxidative stress damage in PD mice can be investigated.
HO-1 is expressed in astrocytes, microglial cells, and neurons. The total proteins of the midbrain tissue of mice in each experiment group were extracted, to determine the expression of phase II enzyme HO-1 in the midbrain of mice by western blot using GAPDH as the internal reference. The experiment included blank control group, MPTP model group, positive control group (caffeic acid phenethyl ester, CAPE), prototype control group (styryl sulfone compounds 3B, 3C, 3D, and 3G, whose structures are shown as above), and target compound group.

SMILES | Expression (pp38/GAPDH) (midbrain pp38) | Expression (Immunofluorescence intensity %) (substantia nigra TH) [%] | Expression (Immunofluorescence intensity %) (substantia nigra p-α-s) [%] | Expression (CD11b/GAPDH) (midbrain CD11b) | Expression (HO-1/GAPDH) (HO-1)
O=C(NC(=O)C(F)(F)F)Oc1ccc(/C=C/S(=O)(=O)C(F)(F)c2ccc(Oc3ccccn3)cc2)cc1OC(=O)C(F)(F)C(F)(F)F [Compound L1-4, (E)-5-{2-[(4-[pyridin-2-yl-oxy]phenyl)difluoromethylsulfonyl]ethenyl}-2-[N-(2,2,2-trifluoroacetyl)carbamoyloxy]phenyl-2,2,3,3,3-pentafluoropropionate] | 0.28 ± 0.04 | 83.22 ± 5.98 | 58.37 ± 6.11 | 1.09 ± 0.09 | 1.13 ± 0.12
CC[Si](CC)(Oc1ccc(C(Cl)S(=O)(=O)/C=C/c2ccc(OC(=O)N3CC(C)OC(C)C3)c(OC(=O)c3cccc(Cl)c3OC)c2)cc1)c1ccccc1 (stereo not drawn) [Compound R1-5, (E)-4-{2-[4-(diethylphenylsiloxy)phenylchloromesyl]ethenyl}-2-(3-chloro-2-methoxybenzoyloxy)phenyl-2,6-dimethylmorpholine-4-carboxylate] | 0.44 ± 0.07 | 92.45 ± 3.93 | 125.28 ± 9.35 | 1.25 ± 0.08 | 0.87 ± 0.06
C=CCOc1ccc(C/C=C/S(=O)(=O)/C=C/c2ccc(OC(C)=O)c(OC(=O)N(CC=C)CC=C)c2)cc1 [Compound K1-4, 4-{(E)-2-[(E)-3-(4-allyloxyphenyl)prop-1-en-1-yl]sulfonylethenyl}-2-(N,N-diallylcarbamoyloxy)phenyl acetate] | 0.44 ± 0.05 | 74.20 ± 6.58 | 106.95 ± 9.27 | 1.09 ± 0.10 | 1.02 ± 0.09
CC(Br)C(Br)COc1cc(/C=C/S(=O)(=O)CCc2ccc(OCC(F)(F)F)cc2)ccc1OC(=O)Nc1ccsc1 (stereo not drawn) [Compound K1-3, (E)-2-(2,3-dibromobutoxy)-4-{2-[4-(2,2,2-trifluoroethoxy)phenylethylsulfonyl]ethenyl}phenyl-N-(thien-3-yl)carbamate] | 0.35 ± 0.06 | 87.28 ± 4.11 | 90.04 ± 7.43 | 1.01 ± 0.08 | 0.83 ± 0.08
O=S(=O)(/C=C/c1ccc(O)c(O)c1)CCCc1ccccc1 [Compound 3C, (E)-4-{2-[(3-phenylpropyl)sulfonyl]ethenyl}benzene-1,2-diol, reference compound] | 0.85 ± 0.22 | 74.63 ± 9.15 | 132.98 ± 7.78 | 1.02 ± 0.13 | 0.44 ± 0.05
CNC(=O)Oc1ccc(/C=C/S(=O)(=O)CC(Cl)c2ccc(Cl)c([N+](=O)[O-])c2)cc1O (stereo not drawn) [Compound E2-2, (E)-4-{2-[2-chloro-2-(4-chloro-3-nitrophenyl)ethylsulfonyl]ethenyl}-2-hydroxyphenyl-N-methylcarbamate] | 0.43 ± 0.06 | 93.12 ± 4.56 | 128.26 ± 11.62 | 1.17 ± 0.06 | 1.58 ± 0.08
